Assay results taken from patent publication US8735387B2, “Oxazolopyrimidines as Edg-1 receptor agonists” (Sanofi, priority 2008, dated 2014).

Each compound was assayed against T1, human Edg-1 receptor (Homo sapiens, UniProt P21453) (assay: GTP-γ-S assay using human Edg-1 receptors (scintillation proximity assay, membrane preparation from CHO Flp-In cell line)). Conditions: example compound at 10 μM; relative to 10 μM S1P; GTP-γ-S SPA, human Edg-1 membranes.
T1 construct: expressed in transfected cells; membrane preparation
T1 sequence (P21453 whole entry): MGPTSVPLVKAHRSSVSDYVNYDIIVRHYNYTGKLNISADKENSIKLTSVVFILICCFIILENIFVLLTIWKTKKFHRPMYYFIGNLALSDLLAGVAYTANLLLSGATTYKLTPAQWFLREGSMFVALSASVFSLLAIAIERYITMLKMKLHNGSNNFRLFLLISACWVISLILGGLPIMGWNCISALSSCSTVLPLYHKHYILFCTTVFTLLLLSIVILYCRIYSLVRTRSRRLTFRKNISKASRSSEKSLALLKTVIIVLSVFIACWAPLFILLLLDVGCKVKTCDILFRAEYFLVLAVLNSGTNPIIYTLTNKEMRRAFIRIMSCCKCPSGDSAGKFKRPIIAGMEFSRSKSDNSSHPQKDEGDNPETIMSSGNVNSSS
Type: biochemical
Outline: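 Scintillation proximity GTP-γ-S binding assay measuring receptor activation. Membranes prepared from a CHO Flp-In line stably overexpressing N-terminally FLAG-tagged human Edg-1.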

% Activation (Edg-1 receptor activation in percent of the activation by 10 μM S1P)	Structure (SMILES)
136%	C=CCOc1nc(Cc2ccc(Cl)cc2)nc2oc(-c3cccc(C)c3)nc12 [Example 116]
101%	CCOc1nc(Cc2ccc(Cl)cc2)nc2oc(-c3cccc(C)c3)nc12 [Example 117]
103%	Cc1cccc(-c2nc3c(OCCF)nc(Cc4ccc(Cl)cc4)nc3o2)c1 [Example 118]
80%	C=C(C)COc1nc(Cc2ccc(Cl)cc2)nc2oc(-c3cccc(C)c3)nc12 [Example 119]
107%	Cc1cccc(-c2nc3c(OCCCF)nc(Cc4ccc(Cl)cc4)nc3o2)c1 [Example 120]
99%	C=CCCOc1nc(Cc2ccc(Cl)cc2)nc2oc(-c3cccc(C)c3)nc12 [Example 121]
103%	CCCOc1nc(Cc2ccc(Cl)cc2)nc2oc(-c3cccnc3)nc12 [Example 122]
47%	C#CCOc1nc(Cc2ccc(Cl)cc2)nc2oc(-c3cccnc3)nc12 [Example 123]
94%	C=C(C)COc1nc(Cc2ccc(Cl)cc2)nc2oc(-c3cccnc3)nc12 [Example 124]
112%	FCCCOc1nc(Cc2ccc(Cl)cc2)nc2oc(-c3cccnc3)nc12 [Example 125]
105%	FCCCOc1nc(Cc2ccc(Cl)cc2)nc2oc(-c3cccnc3)nc12 [Example 126]
73%	C=CCOc1nc(Cc2ccc(Cl)cc2)nc2oc(-c3cccnc3)nc12 [Example 127]
110%	CCOc1nc(Cc2ccc(Cl)cc2)nc2oc(-c3cccnc3)nc12 [Example 128]
108%	CCCOc1nc(Cc2ccc(Cl)cc2)nc2oc(-c3cccc(OC)c3)nc12 [Example 129]
78%	CCCOc1nc(Cc2ccc(Cl)cc2)nc2oc(-c3cccc(Cl)c3)nc12 [Example 130]
116%	CCCOc1nc(Cc2ccc(Cl)cc2)nc2oc(-c3cc(F)ccc3F)nc12 [Example 131]
71%	CCCOc1nc(Cc2ccc(Cl)cc2)nc2oc(-c3ccc(F)c(F)c3)nc12 [Example 132]
127%	CCCOc1nc(Cn2c(=O)n(C)c3ccccc32)nc2oc(-c3cccc(F)c3)nc12 [Example 133]
78%	CCCOc1nc(CN2CCC(=O)C(C(=O)OC)C2)nc2oc(-c3cccc(F)c3)nc12 (centres unmarked) [Example 134]
117%	CCCOc1nc(Cc2ccc(Cl)cc2)nc2oc(-c3cc(N)ccc3F)nc12 [Example 135]
73%	CCCOc1nc(Cc2ccc(C)cc2)nc2oc(-c3cccc(F)c3)nc12 [Example 136]
55%	CCCOc1nc(Cc2ccc(Cl)cc2)nc2oc(-c3cccc(N(C)C)c3)nc12 [Example 137]
52%	CCCOc1nc(Cc2ccc(Cl)cc2)nc2oc(-c3cc(C(F)(F)F)cc(C(F)(F)F)c3)nc12 [Example 138]
87%	Clc1ccc(Cc2nc(OCC3CC3)c3nc(-c4ccc(N5CCOCC5)nc4)oc3n2)cc1 [Example 139]
92%	CCCOc1nc(CN2CCCC2COC)nc2oc(-c3cccc(F)c3)nc12 (centres unmarked) [Example 140]
85%	C=CCOc1nc(Cc2ccc(Cl)c(Cl)c2)nc2oc(-c3cccc(F)c3)nc12 [Example 141]
